The source of these data is patent publication US20230123334A1, “AMINO LIPID COMPOUND, PREPARATION METHOD THEREFOR, AND APPLICATION THEREOF” (SHENZHEN SHENXIN BIOTECHNOLOGY CO., LTD., priority 2020, published 2023).

The test system of this assay is HEK293 cells. Briefly: Preliminary screening as mRNA vectors, EGFP mRNA transfection of HEK293 cells. Particulars: EGFP mRNA 50 ng per well, 96-well plates; percentage of GFP fluorescent cells relative to total number of cells (Hoechst). It is filed as cell-based. In short, it runs like this:
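Each well of HEK293 cells received 50 ng of EGFP mRNA. Efficiency was expressed as percent GFP-expressing cells over Hoechst-defined total cell number.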

Consider `CCCCCCCCCNc1nc(NCCCN(C)C)nc(SCCCCCC)n1` [Compound D6S6N9], for which the “Absolute mRNA transfection efficiency in HEK293 cells” value (shortened to “Absolute mRNA transfection efficiency”) was 0.3%.

Take `CCCCCCCCCCCNc1nc(NCCCN(C)C)nc(SCCCCCC)n1` [Compound D6S6N11]: the “Absolute mRNA transfection efficiency” value stood at 2.5%.

As for `CCCCCCCCCCCCNc1nc(NCCCN(C)C)nc(SCCCCCC)n1` [Compound D6S6N12], the “Absolute mRNA transfection efficiency” value came to 3.5%. Consider `CCCCCCCCCCCCCNc1nc(NCCCN(C)C)nc(SCCCCCC)n1` [Compound D6S6N13], for which the “Absolute mRNA transfection efficiency” value was found to be 3.0%. With `CCCCCCCCCCCCCCCNc1nc(NCCCN(C)C)nc(SCCCCCC)n1` [Compound D6S6N15] the figure was 12.1%; with `CCCCCCCCCCCCCCCCNc1nc(NCCCN(C)C)nc(SCCCCCC)n1` [Compound D6S6N16], 40.4%; with `CCCCCCCCCCCCCCCCCCNc1nc(NCCCN(C)C)nc(SCCCCCC)n1` [Compound D6S6N18], 60.1%. To `CCCCCCSc1nc(NCCCN(C)C)nc(SCCCCCC)n1` [Compound D6S6S6] belongs 12.6%; to `CCCCCCCSc1nc(NCCCN(C)C)nc(SCCCCCC)n1` [Compound D6S6S7], 11.3%; to `CCCCCCCCSc1nc(NCCCN(C)C)nc(SCCCCCC)n1` [Compound D6S6S8], 21.1%. To `CCCCCCCCCSc1nc(NCCCN(C)C)nc(SCCCCCC)n1` [Compound D6S6S9] belongs 10.6%; to `CCCCCCCCCCSc1nc(NCCCN(C)C)nc(SCCCCCC)n1` [Compound D6S6S10], 31.4%. As to `CCCCCCCCCCCSc1nc(NCCCN(C)C)nc(SCCCCCC)n1` [Compound D6S6S11], the “Absolute mRNA transfection efficiency” value turned out to be 15.7%. In the case of `CCCCCCCCCCCCSc1nc(NCCCN(C)C)nc(SCCCCCC)n1` [Compound D6S6S12], the “Absolute mRNA transfection efficiency” value worked out at 24.7%. To `CCCCCCCCCCCCCCSc1nc(NCCCN(C)C)nc(SCCCCCC)n1` [Compound D6S6S14] belongs 62.8%.

As for `CCCCCCCCCCCCCCCSc1nc(NCCCN(C)C)nc(SCCCCCC)n1` [Compound D6S6S15], the “Absolute mRNA transfection efficiency” value turned out to be 47.0%. To `CCCCCCCCCCCCCCCCSc1nc(NCCCN(C)C)nc(SCCCCCC)n1` [Compound D6S6S16] belongs 34.4%; to `CCCCCCCCCCCCCCCCCCSc1nc(NCCCN(C)C)nc(SCCCCCC)n1` [Compound D6S6S18], 83.3%. With `CCCCCCCSc1nc(NCCCCCC)nc(NCCCN(C)C)n1` [Compound D6S7N6], the “Absolute mRNA transfection efficiency” value is given as 8.8%. With `CCCCCCCNc1nc(NCCCN(C)C)nc(SCCCCCCC)n1` [Compound D6S7N7] the figure was 1.8%; with `CCCCCCCCNc1nc(NCCCN(C)C)nc(SCCCCCCC)n1` [Compound D6S7N8], 2.8%. With `CCCCCCCCCNc1nc(NCCCN(C)C)nc(SCCCCCCC)n1` [Compound D6S7N9] the figure was 5.9%.

Regarding `CCCCCCCCCCCNc1nc(NCCCN(C)C)nc(SCCCCCCC)n1` [Compound D6S7N11], the “Absolute mRNA transfection efficiency” value was 18.9%. Turning to `CCCCCCCCCCCCNc1nc(NCCCN(C)C)nc(SCCCCCCC)n1` [Compound D6S7N12], the “Absolute mRNA transfection efficiency” value turned out to be 12.5%.

As for `CCCCCCCCCCCCCNc1nc(NCCCN(C)C)nc(SCCCCCCC)n1` [Compound D6S7N13], the “Absolute mRNA transfection efficiency” value worked out at 44.9%. For `CCCCCCCCCCCCCCCNc1nc(NCCCN(C)C)nc(SCCCCCCC)n1` [Compound D6S7N15], the “Absolute mRNA transfection efficiency” value is on record as 37.9%. With `CCCCCCCCCCCCCCCCNc1nc(NCCCN(C)C)nc(SCCCCCCC)n1` [Compound D6S7N16] the figure was 44.8%; with `CCCCCCCCCCCCCCCCCCNc1nc(NCCCN(C)C)nc(SCCCCCCC)n1` [Compound D6S7N18], 49.2%; with `CCCCCCCSc1nc(NCCCN(C)C)nc(SCCCCCCC)n1` [Compound D6S7S7], 29.3%.

Take `CCCCCCCCSc1nc(NCCCN(C)C)nc(SCCCCCCC)n1` [Compound D6S7S8]: the “Absolute mRNA transfection efficiency” value came to 6.3%. Regarding `CCCCCCCCCSc1nc(NCCCN(C)C)nc(SCCCCCCC)n1` [Compound D6S7S9], the “Absolute mRNA transfection efficiency” value worked out at 14.3%. To `CCCCCCCCCCSc1nc(NCCCN(C)C)nc(SCCCCCCC)n1` [Compound D6S7S10] belongs 18.1%.

With `CCCCCCCCCCCSc1nc(NCCCN(C)C)nc(SCCCCCCC)n1` [Compound D6S7S11], the “Absolute mRNA transfection efficiency” value is 68.6%.

In the case of `CCCCCCCCCCCCSc1nc(NCCCN(C)C)nc(SCCCCCCC)n1` [Compound D6S7S12], the “Absolute mRNA transfection efficiency” value is on record as 93.8%. To `CCCCCCCCCCCCCCSc1nc(NCCCN(C)C)nc(SCCCCCCC)n1` [Compound D6S7S14] belongs 59.7%; to `CCCCCCCCCCCCCCCSc1nc(NCCCN(C)C)nc(SCCCCCCC)n1` [Compound D6S7S15], 90.0%; to `CCCCCCCCCCCCCCCCSc1nc(NCCCN(C)C)nc(SCCCCCCC)n1` [Compound D6S7S16], 90.8%. To `CCCCCCCCCCCCCCCCCCSc1nc(NCCCN(C)C)nc(SCCCCCCC)n1` [Compound D6S7S18] belongs 22.0%; to `CCCCCCCCSc1nc(NCCCCCC)nc(NCCCN(C)C)n1` [Compound D6S8N6], 9.4%.

Take `CCCCCCCCSc1nc(NCCCCCCC)nc(NCCCN(C)C)n1` [Compound D6S8N7]: the “Absolute mRNA transfection efficiency” value came out at 4.3%. In the case of `CCCCCCCCNc1nc(NCCCN(C)C)nc(SCCCCCCCC)n1` [Compound D6S8N8], the “Absolute mRNA transfection efficiency” value amounted to 3.5%. Take `CCCCCCCCCNc1nc(NCCCN(C)C)nc(SCCCCCCCC)n1` [Compound D6S8N9]: the “Absolute mRNA transfection efficiency” value stood at 6.7%. On to `CCCCCCCCCCCNc1nc(NCCCN(C)C)nc(SCCCCCCCC)n1` [Compound D6S8N11], for which the “Absolute mRNA transfection efficiency” value worked out at 32.3%.

On to `CCCCCCCCCCCCNc1nc(NCCCN(C)C)nc(SCCCCCCCC)n1` [Compound D6S8N12], for which the “Absolute mRNA transfection efficiency” value is on record as 46.0%.

With `CCCCCCCCCCCCCNc1nc(NCCCN(C)C)nc(SCCCCCCCC)n1` [Compound D6S8N13], the “Absolute mRNA transfection efficiency” value worked out at 58.0%. With `CCCCCCCCCCCCCCCNc1nc(NCCCN(C)C)nc(SCCCCCCCC)n1` [Compound D6S8N15] the figure was 55.3%; with `CCCCCCCCCCCCCCCCNc1nc(NCCCN(C)C)nc(SCCCCCCCC)n1` [Compound D6S8N16], 67.0%; with `CCCCCCCCCCCCCCCCCCNc1nc(NCCCN(C)C)nc(SCCCCCCCC)n1` [Compound D6S8N18], 40.4%. To `CCCCCCCCSc1nc(NCCCN(C)C)nc(SCCCCCCCC)n1` [Compound D6S8S8] belongs 45.6%; to `CCCCCCCCCSc1nc(NCCCN(C)C)nc(SCCCCCCCC)n1` [Compound D6S8S9], 59.9%. On to `CCCCCCCCCCSc1nc(NCCCN(C)C)nc(SCCCCCCCC)n1` [Compound D6S8S10], for which the “Absolute mRNA transfection efficiency” value stood at 70.2%. To `CCCCCCCCCCCSc1nc(NCCCN(C)C)nc(SCCCCCCCC)n1` [Compound D6S8S11] belongs 92.3%. To `CCCCCCCCCCCCSc1nc(NCCCN(C)C)nc(SCCCCCCCC)n1` [Compound D6S8S12] belongs 61.9%; to `CCCCCCCCCSc1nc(NCCCCCC)nc(NCCCN(C)C)n1` [Compound D6S9N6], 1.4%. With `CCCCCCCCCSc1nc(NCCCCCCC)nc(NCCCN(C)C)n1` [Compound D6S9N7] the figure was 1.2%; with `CCCCCCCCCSc1nc(NCCCCCCCC)nc(NCCCN(C)C)n1` [Compound D6S9N8], 7.5%; with `CCCCCCCCCNc1nc(NCCCN(C)C)nc(SCCCCCCCCC)n1` [Compound D6S9N9], 19.8%. Take `CCCCCCCCCCCNc1nc(NCCCN(C)C)nc(SCCCCCCCCC)n1` [Compound D6S9N11]: the “Absolute mRNA transfection efficiency” value is listed as 58.8%. To `CCCCCCCCCCCCNc1nc(NCCCN(C)C)nc(SCCCCCCCCC)n1` [Compound D6S9N12] belongs 39.3%; to `CCCCCCCCCCCCCNc1nc(NCCCN(C)C)nc(SCCCCCCCCC)n1` [Compound D6S9N13], 70.9%. With `CCCCCCCCCCCCCCCNc1nc(NCCCN(C)C)nc(SCCCCCCCCC)n1` [Compound D6S9N15] the figure was 36.5%; with `CCCCCCCCCCCCCCCCNc1nc(NCCCN(C)C)nc(SCCCCCCCCC)n1` [Compound D6S9N16], 46.2%. With `CCCCCCCCCCCCCCCCCCNc1nc(NCCCN(C)C)nc(SCCCCCCCCC)n1` [Compound D6S9N18] the figure was 44.8%.

Regarding `CCCCCCCCCCSc1nc(NCCCCCC)nc(NCCCN(C)C)n1` [Compound D6S10N6], the “Absolute mRNA transfection efficiency” value amounted to 1.5%.

As to `CCCCCCCCCCSc1nc(NCCCCCCC)nc(NCCCN(C)C)n1` [Compound D6S10N7], the “Absolute mRNA transfection efficiency” value was 4.4%.
